Experiments:
[1] = tested on: CT26; assay: Antiproliferative activity against mouse CT26 cells assessed as inhibition of cell growth incubated for 48 hrs by MTT assay; assay type: functional, cell-based; conditions: CT26, 48 h
[2] = tested on: MCF7; assay: Antiproliferative activity against human MCF7 cells assessed as inhibition of cell growth incubated for 48 hrs by MTT assay; assay type: functional, cell-based; conditions: MCF7, 48 h
[3] = tested on: Bel-7402; assay: Antiproliferative activity against human Bel-7402 cells assessed as inhibition of cell growth incubated for 48 hrs by MTT assay; assay type: functional, cell-based; conditions: Bel-7402, 48 h
[4] = tested on: A549; assay: Antiproliferative activity against human A549 cells assessed as inhibition of cell growth incubated for 48 hrs by MTT assay; assay type: functional, cell-based; conditions: A549, 48 h
[5] = tested on: BGC-823; assay: Antiproliferative activity against human BGC-823 cells assessed as inhibition of cell growth incubated for 48 hrs by MTT assay; assay type: functional, cell-based; conditions: BGC-823, 48 h
[6] = tested on: Chorioallantoic membrane; assay: Antiangiogenic activity in chicken embryo chorioallantoic membrane assessed as decrease in microvessel density incubated for 48 hrs by microscopic analysis; assay type: functional, tissue-based; conditions: Gallus gallus
[7] = molecular target: Vascular endothelial growth factor receptor 2 (Mus musculus) (UniProt P35918); assay: Inhibition of VEGFR2 autophosphorylation in mouse BEND3 cells incubated for 2 hrs by Western blotting analysis; assay type: cell-based
Vascular endothelial growth factor receptor 2 (Mus musculus), sequence (P35918 whole entry): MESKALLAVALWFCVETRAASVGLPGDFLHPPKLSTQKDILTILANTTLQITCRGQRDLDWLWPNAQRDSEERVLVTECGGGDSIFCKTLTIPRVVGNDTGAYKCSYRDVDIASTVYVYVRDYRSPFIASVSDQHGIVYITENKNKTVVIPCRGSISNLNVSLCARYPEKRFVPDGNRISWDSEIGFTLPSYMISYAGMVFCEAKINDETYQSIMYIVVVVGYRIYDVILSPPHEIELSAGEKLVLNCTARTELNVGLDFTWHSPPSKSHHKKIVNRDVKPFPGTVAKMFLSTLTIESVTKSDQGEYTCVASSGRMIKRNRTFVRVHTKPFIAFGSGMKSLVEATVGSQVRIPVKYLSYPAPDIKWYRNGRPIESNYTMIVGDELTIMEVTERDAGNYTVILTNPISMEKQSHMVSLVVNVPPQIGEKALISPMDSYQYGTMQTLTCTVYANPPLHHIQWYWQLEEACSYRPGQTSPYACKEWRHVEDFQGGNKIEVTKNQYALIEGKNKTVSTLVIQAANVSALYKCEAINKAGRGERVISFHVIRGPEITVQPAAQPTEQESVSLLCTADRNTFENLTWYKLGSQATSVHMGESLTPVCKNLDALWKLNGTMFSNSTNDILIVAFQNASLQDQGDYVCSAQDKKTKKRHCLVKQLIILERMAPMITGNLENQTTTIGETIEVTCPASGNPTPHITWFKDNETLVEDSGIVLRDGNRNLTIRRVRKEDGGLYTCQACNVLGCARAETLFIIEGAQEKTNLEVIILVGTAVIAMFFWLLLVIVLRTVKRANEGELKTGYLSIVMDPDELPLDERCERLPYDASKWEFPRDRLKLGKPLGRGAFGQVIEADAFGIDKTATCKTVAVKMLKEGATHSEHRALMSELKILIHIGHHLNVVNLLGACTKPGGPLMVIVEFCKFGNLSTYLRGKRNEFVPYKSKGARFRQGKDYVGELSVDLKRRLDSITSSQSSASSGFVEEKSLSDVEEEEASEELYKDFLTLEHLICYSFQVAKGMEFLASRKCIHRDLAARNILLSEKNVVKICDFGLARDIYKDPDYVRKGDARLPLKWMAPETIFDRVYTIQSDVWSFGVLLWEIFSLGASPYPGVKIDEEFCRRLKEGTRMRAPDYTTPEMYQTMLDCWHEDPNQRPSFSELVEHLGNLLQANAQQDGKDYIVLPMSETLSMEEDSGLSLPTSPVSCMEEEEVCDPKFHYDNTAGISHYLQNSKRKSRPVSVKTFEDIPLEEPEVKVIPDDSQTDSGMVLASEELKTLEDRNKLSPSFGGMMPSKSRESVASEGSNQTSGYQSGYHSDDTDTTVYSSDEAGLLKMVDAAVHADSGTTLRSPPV

| Compound | IC50 [1] | IC50 [2] | IC50 [3] | IC50 [4] | IC50 [5] | Activity [6] | inhibition [7] |
| --- | --- | --- | --- | --- | --- | --- | --- |
| FC(F)(F)c1cccc(-n2cc3cc4c5ccccc5n(Cc5ccccc5)c4c[n+]3c2)c1 | 7.7 µM | 11.5 µM | 3.5 µM | 20.9 µM | 20.6 µM |  |  |
| CN(C)c1ccc(-n2cc3cc4c5ccccc5n(Cc5cccc(Cl)c5)c4c[n+]3c2)cc1 | 21.1 µM | 7.9 µM | 8.1 µM | 12.3 µM | 11.9 µM |  |  |
| CN(C)c1ccc(-n2cc3cc4c5ccccc5n(C)c4c[n+]3c2)cc1 | 23.5 µM | 3.8 µM | 22.5 µM | 15.4 µM | 19.1 µM |  |  |
| FC(F)(F)c1ccc(-n2cc3cc4c5ccccc5n(Cc5ccccc5)c4c[n+]3c2)cc1 | 15.9 µM | 9.1 µM | 16.3 µM | 23.2 µM | 1.1 µM |  |  |
| CCCCn1c2ccccc2c2cc3cn(-c4ccc5ccccc5c4)c[n+]3cc21 | 4.9 µM | 12.7 µM | 5.7 µM | 8.3 µM | 14.5 µM |  |  |
| CN(C)c1ccc(-n2cc3cc4c5ccccc5n(Cc5ccccc5)c4c[n+]3c2)cc1 | 19.4 µM | 14.1 µM | 16.2 µM | 7.5 µM | 7.7 µM |  |  |
| CN(C)CCn1cc2cc3c4ccccc4n(CCCc4ccccc4)c3c[n+]2c1 | 3.8 µM | 1.5 µM | 8.4 µM | 10.6 µM | 13.1 µM |  |  |
| CN(C)CCn1cc2cc3c4ccccc4n(Cc4ccccc4)c3c[n+]2c1 | 8.9 µM | 4.6 µM | 8.3 µM | 11.7 µM | 2.8 µM |  |  |
| COc1ccc(Cn2c3ccccc3c3cc4cn(-c5ccc(C(F)(F)F)cc5)c[n+]4cc32)cc1 | 22.7 µM | 15.7 µM | 4.1 µM | 9.9 µM | 3.5 µM |  |  |
| c1ccc(Cn2c3ccccc3c3cc4cn(-c5ccccc5)c[n+]4cc32)cc1 | 7.3 µM | 5.5 µM | 11.6 µM | 6.8 µM | 4.1 µM |  |  |
| Fc1ccc(Cn2c3ccccc3c3cc4cn(-c5ccccc5)c[n+]4cc32)cc1 | 4.3 µM | 12.5 µM | 15.9 µM | 23.5 µM | 14.1 µM |  |  |
| FC(F)(F)c1cccc(-n2cc3cc4c5ccccc5n(Cc5cccc(Cl)c5)c4c[n+]3c2)c1 | 17.2 µM | 1.4 µM | 5.5 µM | 8.5 µM | 10.9 µM |  |  |
| Cn1c2ccccc2c2cc3cn(-c4cc(F)cc(F)c4)c[n+]3cc21 | 16.1 µM | 9.2 µM | 19.2 µM | 12.2 µM | 3.5 µM |  |  |
| COc1ccc(Cn2c3ccccc3c3cc4cn(-c5ccccc5)c[n+]4cc32)cc1 | 13.3 µM | 8.8 µM | 16.8 µM | 14.3 µM | 19.2 µM |  |  |
| COc1ccc(Cn2c3ccccc3c3cc4cn(-c5ccc(N(C)C)cc5)c[n+]4cc32)cc1 | 11.5 µM | 5.1 µM | 22.2 µM | 20.1 µM | 7.3 µM |  |  |
| FC(F)(F)c1ccc(-n2cc3cc4c5ccccc5n(CCCc5ccccc5)c4c[n+]3c2)cc1 | 4.8 µM | 3.3 µM | 5.2 µM | 23.9 µM | 17.5 µM |  |  |
| Cn1c2ccccc2c2cc3cn(-c4cccc(C(F)(F)F)c4)c[n+]3cc21 | 8.2 µM | 19.9 µM | 10.9 µM | 21.8 µM | 17.6 µM |  |  |
| c1ccc(Cn2cc3cc4c5ccccc5n(Cc5ccccc5)c4c[n+]3c2)cc1 | 15.9 µM | 2.5 µM | 13.2 µM | 21.3 µM | 3.4 µM |  |  |
| Clc1cccc(Cn2c3ccccc3c3cc4cn(Cc5ccccc5)c[n+]4cc32)c1 | 1.3 µM | 16.9 µM | 10.8 µM | 22.6 µM | 12.6 µM |  |  |
| Clc1cccc(Cn2c3ccccc3c3cc4cn(-c5ccccc5)c[n+]4cc32)c1 | 5.8 µM | 10.3 µM | 1.8 µM | 10.8 µM | 10.5 µM |  |  |
| Cn1c2ccccc2c2cc3cn(-c4ccccc4)c[n+]3cc21 | 18.4 µM | 20.1 µM | 18.3 µM | 7.8 µM | 12.5 µM |  |  |
| FC(F)(F)c1ccc(-n2cc3cc4c5ccccc5n(Cc5cccc(Cl)c5)c4c[n+]3c2)cc1 | 6.9 µM | 4.9 µM | 21.5 µM | 12.1 µM | 7.5 µM |  |  |
| CCCCn1c2ccccc2c2cc3cn(-c4ccc(C(F)(F)F)cc4)c[n+]3cc21 | 9.8 µM | 12.1 µM | 7.8 µM | 2.4 µM | 1.3 µM | Dose-dependent-effect | Dose-dependent-effect |
| CCCCn1c2ccccc2c2cc3cn(-c4ccccc4)c[n+]3cc21 | 1.1 µM | 15.6 µM | 3.2 µM | 14.3 µM | 8.5 µM |  |  |

— ChEMBL document CHEMBL6083248, “Synthesis, pharmacological evaluation, and modeling of novel quaternary ammonium salts derived from β-carboline containing an imidazole moiety as angiogenesis inhibitors” (Bioorg Med Chem, 2024)
